Results from ChEMBL document CHEMBL6134873, “Identification of Novel Cyclobutane-Based Derivatives as Potent Acetyl-CoA Carboxylase Allosteric Inhibitors for Nonalcoholic Steatohepatitis Drug Discovery” (J Med Chem, 2025).
pIC50: −log10 of the molar value. Values belong to the compound of their own block, whether it stands above or below them.

Key:
[1] = Inhibition of ACC2 in rat skeletal muscle using KH[14C]O3 as substrate measured after 7 mins in presence of ATP by liquid scintillation counter analysis
Acetyl-CoA carboxylase 1 = Acetyl-CoA carboxylase 1 (Homo sapiens, UniProt Q13085)
Description: Inhibition of recombinant human ACC1 using acetyl-Co A as substrate incubated for 60 mins in presence of ATP by ADP-Glo assay

Acetyl-CoA carboxylase 2 = Acetyl-CoA carboxylase 2 (Homo sapiens, UniProt O00763)
Sequence of Acetyl-CoA carboxylase 2 (O00763 whole entry): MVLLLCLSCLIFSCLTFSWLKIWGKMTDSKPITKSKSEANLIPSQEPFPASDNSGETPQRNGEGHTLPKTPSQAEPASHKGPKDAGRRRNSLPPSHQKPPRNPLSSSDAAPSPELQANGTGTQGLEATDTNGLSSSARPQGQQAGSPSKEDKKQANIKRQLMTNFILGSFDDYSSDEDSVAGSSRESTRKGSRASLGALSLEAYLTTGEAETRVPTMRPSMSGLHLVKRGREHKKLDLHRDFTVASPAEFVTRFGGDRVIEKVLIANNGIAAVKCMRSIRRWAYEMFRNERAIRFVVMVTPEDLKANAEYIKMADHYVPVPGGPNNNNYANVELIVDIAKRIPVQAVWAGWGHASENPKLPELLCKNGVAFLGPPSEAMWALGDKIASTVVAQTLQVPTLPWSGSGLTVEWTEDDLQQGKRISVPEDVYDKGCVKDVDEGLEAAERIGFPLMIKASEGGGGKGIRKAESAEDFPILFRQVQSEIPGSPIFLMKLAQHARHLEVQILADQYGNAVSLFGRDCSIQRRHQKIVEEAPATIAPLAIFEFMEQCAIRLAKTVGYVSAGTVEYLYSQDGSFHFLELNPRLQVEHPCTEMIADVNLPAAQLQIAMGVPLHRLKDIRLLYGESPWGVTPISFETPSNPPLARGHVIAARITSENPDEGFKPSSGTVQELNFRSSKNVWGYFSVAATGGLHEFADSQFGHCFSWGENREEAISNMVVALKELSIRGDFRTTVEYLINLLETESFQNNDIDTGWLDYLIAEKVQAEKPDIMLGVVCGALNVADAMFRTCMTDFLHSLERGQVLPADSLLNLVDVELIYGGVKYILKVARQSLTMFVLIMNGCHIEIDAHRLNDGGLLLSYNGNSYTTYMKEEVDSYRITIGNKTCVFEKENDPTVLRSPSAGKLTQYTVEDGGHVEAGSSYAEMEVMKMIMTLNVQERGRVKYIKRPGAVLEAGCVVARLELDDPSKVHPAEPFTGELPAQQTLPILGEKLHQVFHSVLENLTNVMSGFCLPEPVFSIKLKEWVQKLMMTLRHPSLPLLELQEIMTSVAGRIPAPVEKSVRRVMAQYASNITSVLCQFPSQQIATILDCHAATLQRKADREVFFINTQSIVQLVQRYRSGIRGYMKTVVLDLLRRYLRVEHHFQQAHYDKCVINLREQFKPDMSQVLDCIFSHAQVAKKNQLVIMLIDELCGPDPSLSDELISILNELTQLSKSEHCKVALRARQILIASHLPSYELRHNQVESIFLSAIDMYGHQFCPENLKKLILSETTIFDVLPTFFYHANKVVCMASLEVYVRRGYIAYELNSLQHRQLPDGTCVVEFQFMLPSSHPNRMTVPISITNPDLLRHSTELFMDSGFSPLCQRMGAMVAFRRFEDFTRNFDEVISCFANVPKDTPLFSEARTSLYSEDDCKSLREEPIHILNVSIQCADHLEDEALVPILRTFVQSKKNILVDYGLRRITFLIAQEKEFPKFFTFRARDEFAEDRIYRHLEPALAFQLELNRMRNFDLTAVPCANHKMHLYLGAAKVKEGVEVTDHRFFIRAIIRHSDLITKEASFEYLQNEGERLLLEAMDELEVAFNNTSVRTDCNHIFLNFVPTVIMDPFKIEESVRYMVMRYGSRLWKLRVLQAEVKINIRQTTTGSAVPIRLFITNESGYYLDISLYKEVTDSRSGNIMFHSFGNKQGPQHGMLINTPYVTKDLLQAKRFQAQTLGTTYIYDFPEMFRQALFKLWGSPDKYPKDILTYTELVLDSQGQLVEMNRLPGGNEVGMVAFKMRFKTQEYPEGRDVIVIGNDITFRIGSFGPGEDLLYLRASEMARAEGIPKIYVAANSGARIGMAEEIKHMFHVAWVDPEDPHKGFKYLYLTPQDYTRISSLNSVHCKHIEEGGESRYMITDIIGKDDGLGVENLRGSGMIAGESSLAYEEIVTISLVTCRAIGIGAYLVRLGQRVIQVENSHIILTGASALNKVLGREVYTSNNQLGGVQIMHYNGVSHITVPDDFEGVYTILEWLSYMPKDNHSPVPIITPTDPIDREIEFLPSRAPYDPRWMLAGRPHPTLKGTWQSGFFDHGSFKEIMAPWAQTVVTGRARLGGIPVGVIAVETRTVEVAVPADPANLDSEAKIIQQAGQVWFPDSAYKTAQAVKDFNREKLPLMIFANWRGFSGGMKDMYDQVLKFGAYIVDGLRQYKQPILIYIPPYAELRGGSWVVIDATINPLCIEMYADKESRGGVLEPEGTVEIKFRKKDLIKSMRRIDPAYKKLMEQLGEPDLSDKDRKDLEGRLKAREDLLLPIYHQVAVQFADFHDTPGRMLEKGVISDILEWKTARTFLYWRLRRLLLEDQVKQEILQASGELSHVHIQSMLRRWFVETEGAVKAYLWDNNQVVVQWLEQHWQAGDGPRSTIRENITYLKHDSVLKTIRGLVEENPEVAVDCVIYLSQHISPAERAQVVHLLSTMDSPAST
Description: Inhibition of recombinant human ACC2 using acetyl-Co A as substrate incubated for 60 mins in presence of ATP by ADP-Glo assay

[2] = Half life in Sprague-Dawley rat at 1 mg/kg, iv measured for 0.25 to 24 hrs by LC-MS/MS analysis; assay type: ADME, organism-based; conditions: in vivo, time 0.25-24 hrs
[3] = Volume of distribution in Sprague-Dawley rat at 1 mg/kg, iv measured for 0.25 to 24 hrs by LC-MS/MS analysis; assay type: ADME, organism-based; conditions: in vivo, time 0.25-24 hrs
[4] = Clearance in Sprague-Dawley rat at 1 mg/kg, iv measured for 0.25 to 24 hrs by LC-MS/MS analysis; assay type: ADME, organism-based; conditions: in vivo, time 0.25-24 hrs
[5] = MRT (0 to t) in Sprague-Dawley rat at 3 mg/kg, po measured for 0.25 to 24 hrs by LC-MS/MS analysis; assay type: ADME, organism-based; conditions: in vivo, time 0.25-24 hrs
[6] = Cmax in Sprague-Dawley rat at 3 mg/kg, po measured for 0.25 to 24 hrs by LC-MS/MS analysis; assay type: ADME, organism-based; conditions: in vivo, time 0.25-24 hrs
[7] = MRT (0 to t) in Sprague-Dawley rat at 1 mg/kg, iv measured for 0.25 to 24 hrs by LC-MS/MS analysis; assay type: ADME, organism-based; conditions: in vivo, time 0.25-24 hrs
[8] = Oral bioavailability in Sprague-Dawley rat at 3 mg/kg measured for 0.25 to 24 hrs by LC-MS/MS analysis; assay type: ADME, organism-based; conditions: in vivo, time 0.25-24 hrs
[9] = AUC (0 to t) in Sprague-Dawley rat at 1 mg/kg, iv measured for 0.25 to 24 hrs by LC-MS/MS analysis; assay type: ADME, organism-based; conditions: in vivo, time 0.25-24 hrs
[10] = AUC (0 to t) in Sprague-Dawley rat at 3 mg/kg, po measured for 0.25 to 24 hrs by LC-MS/MS analysis; assay type: ADME, organism-based; conditions: in vivo, time 0.25-24 hrs
[11] = Half life in Sprague-Dawley rat at 3 mg/kg, po measured for 0.25 to 24 hrs by LC-MS/MS analysis; assay type: ADME, organism-based; conditions: in vivo, time 0.25-24 hrs
[12] = Tmax in Sprague-Dawley rat at 3 mg/kg, po measured for 0.25 to 24 hrs by LC-MS/MS analysis; assay type: ADME, organism-based; conditions: in vivo, time 0.25-24 hrs
[13] = Intrinsic clearance in dog liver microsomes; assay type: ADME, Canis lupus familiaris, Microsome; conditions: read-out: CLH
Cytochrome P450 2D6 = Cytochrome P450 2D6 (Homo sapiens, UniProt P10635); test: Inhibition of CYP2D6 (unknown origin); assay type: ADME
Sequence of Cytochrome P450 2D6 (P10635 whole entry): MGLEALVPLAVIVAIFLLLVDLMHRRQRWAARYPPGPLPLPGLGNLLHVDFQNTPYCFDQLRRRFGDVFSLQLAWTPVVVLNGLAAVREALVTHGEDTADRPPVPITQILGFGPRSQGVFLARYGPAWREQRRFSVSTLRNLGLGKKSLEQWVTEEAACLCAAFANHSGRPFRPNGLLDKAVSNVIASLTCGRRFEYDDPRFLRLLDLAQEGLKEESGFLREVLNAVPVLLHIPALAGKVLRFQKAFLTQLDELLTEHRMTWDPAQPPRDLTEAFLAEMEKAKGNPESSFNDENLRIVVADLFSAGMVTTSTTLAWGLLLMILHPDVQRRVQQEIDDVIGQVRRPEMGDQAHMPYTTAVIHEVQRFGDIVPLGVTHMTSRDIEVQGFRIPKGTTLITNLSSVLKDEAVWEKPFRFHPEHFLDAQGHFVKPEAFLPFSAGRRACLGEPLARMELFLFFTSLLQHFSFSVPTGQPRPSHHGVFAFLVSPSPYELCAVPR

[14] = Inhibition of fatty acid synthesis in human HepG2 cells preincubated for 1.5 hrs followed by [14C] acetate addition measured after 1.5 hrs by liquid scintillation counter analysis; assay type: functional, cell-based
[15] = Intrinsic clearance in mouse liver microsomes; assay type: ADME, Microsome; conditions: read-out: CLH
Cytochrome P450 2B6 = target: T1, Cytochrome P450 2B6 (Homo sapiens, UniProt P20813); test: Inhibition of CYP2B6 (unknown origin); assay type: ADME
T1 sequence (P20813 whole entry): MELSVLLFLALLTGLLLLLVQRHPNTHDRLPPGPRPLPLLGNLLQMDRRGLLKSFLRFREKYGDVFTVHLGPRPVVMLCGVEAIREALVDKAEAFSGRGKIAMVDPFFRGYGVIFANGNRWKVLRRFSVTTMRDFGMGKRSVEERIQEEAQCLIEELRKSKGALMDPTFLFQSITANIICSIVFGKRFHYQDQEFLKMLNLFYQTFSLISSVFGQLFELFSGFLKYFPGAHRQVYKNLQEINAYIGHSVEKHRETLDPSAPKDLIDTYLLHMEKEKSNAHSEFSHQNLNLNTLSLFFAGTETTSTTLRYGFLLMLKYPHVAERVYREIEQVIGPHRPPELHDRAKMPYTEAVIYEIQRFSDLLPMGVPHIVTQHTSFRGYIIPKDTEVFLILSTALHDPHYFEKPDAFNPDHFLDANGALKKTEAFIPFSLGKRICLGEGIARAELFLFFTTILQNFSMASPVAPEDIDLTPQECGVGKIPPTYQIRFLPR

Cytochrome P450 2C8 = target: T2, Cytochrome P450 2C8 (Homo sapiens, UniProt P10632); test: Inhibition of CYP2C8 (unknown origin); assay type: ADME
T2 sequence (P10632 whole entry): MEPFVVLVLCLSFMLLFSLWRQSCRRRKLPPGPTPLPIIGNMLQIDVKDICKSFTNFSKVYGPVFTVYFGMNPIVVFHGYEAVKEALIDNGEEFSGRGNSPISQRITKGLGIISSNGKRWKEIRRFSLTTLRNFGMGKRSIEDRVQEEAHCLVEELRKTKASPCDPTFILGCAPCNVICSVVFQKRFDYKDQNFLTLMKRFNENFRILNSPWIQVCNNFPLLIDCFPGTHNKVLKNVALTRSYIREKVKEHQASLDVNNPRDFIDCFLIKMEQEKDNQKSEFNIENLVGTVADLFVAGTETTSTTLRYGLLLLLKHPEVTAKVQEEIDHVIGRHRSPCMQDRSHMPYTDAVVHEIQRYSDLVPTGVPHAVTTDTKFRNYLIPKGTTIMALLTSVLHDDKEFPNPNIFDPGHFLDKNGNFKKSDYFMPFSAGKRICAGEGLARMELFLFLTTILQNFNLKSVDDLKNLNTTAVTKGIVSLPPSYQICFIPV

[16] = Biodistribution in 12 hr-fasted male wild-type Sprague-Dawley rat assessed as increase in ratio of drug concentration in liver/plasma at 3 mg/kg, po measured for 0.25 to 4 hrs by LC-MS/MS analysis; assay type: ADME, organism-based; conditions: in vivo, time 0.25-4 hrs
Cytochrome P450 3A4 [17] = target: T3, Cytochrome P450 3A4 (Homo sapiens, UniProt P08684); test: Inhibition of CYP3A4 (unknown origin) using midazolam as substrate; assay type: ADME
T3 sequence (P08684 whole entry): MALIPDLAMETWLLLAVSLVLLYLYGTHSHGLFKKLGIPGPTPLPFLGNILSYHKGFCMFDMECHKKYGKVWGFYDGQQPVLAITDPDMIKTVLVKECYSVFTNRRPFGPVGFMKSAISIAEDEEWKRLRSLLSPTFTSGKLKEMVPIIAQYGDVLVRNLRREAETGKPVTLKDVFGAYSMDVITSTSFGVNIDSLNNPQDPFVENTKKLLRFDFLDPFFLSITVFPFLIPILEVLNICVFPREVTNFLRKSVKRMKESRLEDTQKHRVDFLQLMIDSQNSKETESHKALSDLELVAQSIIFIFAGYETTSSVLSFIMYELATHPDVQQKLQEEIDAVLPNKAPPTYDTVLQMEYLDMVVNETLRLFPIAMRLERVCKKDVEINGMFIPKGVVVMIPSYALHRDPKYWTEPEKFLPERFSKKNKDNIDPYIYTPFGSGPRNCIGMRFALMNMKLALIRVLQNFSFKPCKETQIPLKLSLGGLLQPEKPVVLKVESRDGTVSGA

[18] = Biodistribution in liver of 12 hr-fasted male wild-type Sprague-Dawley rat at 3 mg/kg, po measured after 4 hrs by LC-MS/MS analysis; assay type: ADME, organism-based; conditions: in vivo
[19] = Intrinsic clearance in human liver microsomes; assay type: ADME, Microsome; conditions: read-out: CLH
Cytochrome P450 2C9 = Cytochrome P450 2C9 (Homo sapiens, UniProt P11712); test: Inhibition of CYP2C9 (unknown origin); assay type: ADME
Sequence of Cytochrome P450 2C9 (P11712 whole entry): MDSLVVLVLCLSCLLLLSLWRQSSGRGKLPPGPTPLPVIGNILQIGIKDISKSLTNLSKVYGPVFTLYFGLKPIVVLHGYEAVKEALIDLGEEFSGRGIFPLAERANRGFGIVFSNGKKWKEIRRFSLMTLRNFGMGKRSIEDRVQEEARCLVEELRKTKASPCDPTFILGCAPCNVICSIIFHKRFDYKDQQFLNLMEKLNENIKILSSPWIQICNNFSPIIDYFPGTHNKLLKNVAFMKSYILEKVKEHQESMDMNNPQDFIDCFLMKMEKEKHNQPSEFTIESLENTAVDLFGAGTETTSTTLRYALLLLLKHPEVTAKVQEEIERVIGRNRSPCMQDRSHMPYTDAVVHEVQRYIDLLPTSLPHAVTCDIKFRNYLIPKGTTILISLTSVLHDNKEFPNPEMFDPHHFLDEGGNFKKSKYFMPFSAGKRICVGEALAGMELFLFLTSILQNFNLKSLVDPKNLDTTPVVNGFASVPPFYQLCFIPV

[20] = Protein binding in human plasma; assay type: ADME, cell-free; conditions: read-out: PPB (converted)
[21] = target: Voltage-gated inwardly rectifying potassium channel KCNH2 (Homo sapiens, UniProt Q12809); test: Inhibition of hERG; assay type: toxicity
Sequence of Voltage-gated inwardly rectifying potassium channel KCNH2 (Q12809 whole entry): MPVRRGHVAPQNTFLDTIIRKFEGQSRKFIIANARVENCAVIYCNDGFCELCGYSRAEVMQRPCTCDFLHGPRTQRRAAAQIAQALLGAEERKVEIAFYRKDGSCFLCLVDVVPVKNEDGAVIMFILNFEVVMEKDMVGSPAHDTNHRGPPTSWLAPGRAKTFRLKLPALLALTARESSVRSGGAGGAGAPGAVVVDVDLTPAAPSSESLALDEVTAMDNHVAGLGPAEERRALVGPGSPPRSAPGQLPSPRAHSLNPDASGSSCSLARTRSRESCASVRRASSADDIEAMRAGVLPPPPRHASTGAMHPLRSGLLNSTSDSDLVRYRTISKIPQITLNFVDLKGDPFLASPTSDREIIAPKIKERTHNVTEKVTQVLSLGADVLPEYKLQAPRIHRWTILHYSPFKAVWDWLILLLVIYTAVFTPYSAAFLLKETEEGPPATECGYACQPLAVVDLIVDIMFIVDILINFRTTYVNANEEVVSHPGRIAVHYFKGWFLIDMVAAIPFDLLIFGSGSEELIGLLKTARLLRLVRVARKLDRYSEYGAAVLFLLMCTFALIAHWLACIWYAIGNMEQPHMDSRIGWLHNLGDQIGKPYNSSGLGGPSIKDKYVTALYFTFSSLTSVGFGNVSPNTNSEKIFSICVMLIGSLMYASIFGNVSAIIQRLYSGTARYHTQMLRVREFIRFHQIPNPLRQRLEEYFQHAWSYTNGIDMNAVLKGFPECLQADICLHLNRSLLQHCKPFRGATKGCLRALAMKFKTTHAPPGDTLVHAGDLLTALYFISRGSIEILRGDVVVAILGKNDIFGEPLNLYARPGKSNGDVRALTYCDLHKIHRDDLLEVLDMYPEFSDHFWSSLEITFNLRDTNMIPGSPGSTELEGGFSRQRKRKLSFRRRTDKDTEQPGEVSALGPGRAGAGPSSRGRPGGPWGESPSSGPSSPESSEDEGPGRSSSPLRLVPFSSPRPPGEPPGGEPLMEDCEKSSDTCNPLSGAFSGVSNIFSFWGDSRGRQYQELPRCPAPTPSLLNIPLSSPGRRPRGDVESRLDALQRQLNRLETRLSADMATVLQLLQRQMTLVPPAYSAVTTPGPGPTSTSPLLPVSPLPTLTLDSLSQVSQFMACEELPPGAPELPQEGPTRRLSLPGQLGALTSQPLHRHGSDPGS

[22] = Protein binding in rat plasma; assay type: ADME, cell-free; conditions: read-out: PPB (converted)
Cytochrome P450 2C19 = Cytochrome P450 2C19 (Homo sapiens, UniProt P33261); test: Inhibition of CYP2C19 (unknown origin); assay type: ADME
[23] = Intrinsic clearance in monkey liver microsomes; assay type: ADME, Macaca mulatta, Microsome; conditions: rhesus monkey, read-out: CLH
[24] = Intrinsic clearance in rat liver microsomes; assay type: ADME, Microsome; conditions: read-out: CLH
Cytochrome P450 1A2 = target: T4, Cytochrome P450 1A2 (Homo sapiens, UniProt P05177); test: Inhibition of CYP1A2 (unknown origin); assay type: ADME
T4 sequence (P05177 whole entry): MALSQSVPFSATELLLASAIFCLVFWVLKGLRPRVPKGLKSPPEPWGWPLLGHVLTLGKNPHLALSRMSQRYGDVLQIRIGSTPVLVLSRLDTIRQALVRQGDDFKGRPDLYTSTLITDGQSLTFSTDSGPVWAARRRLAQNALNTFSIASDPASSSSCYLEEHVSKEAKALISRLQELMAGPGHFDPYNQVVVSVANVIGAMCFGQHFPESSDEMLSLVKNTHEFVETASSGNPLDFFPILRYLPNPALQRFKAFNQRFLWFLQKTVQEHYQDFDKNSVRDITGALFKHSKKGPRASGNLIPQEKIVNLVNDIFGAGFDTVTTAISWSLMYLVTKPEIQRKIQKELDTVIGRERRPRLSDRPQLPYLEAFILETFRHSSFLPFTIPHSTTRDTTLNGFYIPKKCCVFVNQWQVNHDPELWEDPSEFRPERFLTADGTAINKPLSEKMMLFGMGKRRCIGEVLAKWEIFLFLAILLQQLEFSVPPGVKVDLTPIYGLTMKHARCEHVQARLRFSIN

Cytochrome P450 3A4 [25] = target: T3, Cytochrome P450 3A4; test: Inhibition of CYP3A4 (unknown origin) using testosterone as substrate; assay type: ADME

Structure (SMILES): O=C(c1c2ccccc2cc2ccccc12)N1CCC(N2CCC[C@@H](C(=O)N3CCOCC3)C2)CC1
- pIC50 [1]: 7.21

Structure (SMILES): COc1ccccc1[C@H](Cn1c(=O)n(C2CC(F)(F)C2)c(=O)c2c(C)c(-c3ncco3)sc21)OC1CCOCC1
- pIC50 (Acetyl-CoA carboxylase 1): 8.03

Structure (SMILES): COc1ccccc1[C@H](Cn1c(=O)n(C2CN(CC(F)(F)F)C2)c(=O)c2c(C)c(-c3ncco3)sc21)OC1CCOCC1
- pIC50 (Acetyl-CoA carboxylase 1): 9.02

Structure (SMILES): COc1ccccc1[C@H](Cn1c(=O)n(C2CN(C(=O)N3CC(C)(C(=O)O)C3)C2)c(=O)c2c(C)c(-c3ncco3)sc21)OC1CCOCC1
- pIC50 (Acetyl-CoA carboxylase 1): 7.92

Structure (SMILES): COc1ccccc1[C@H](Cn1c(=O)n(-c2c(C)ccn3ccnc23)c(=O)c2c(C)c(-c3ncco3)sc21)OC1CCOCC1
- pIC50 (Acetyl-CoA carboxylase 1): 7.28

Structure (SMILES): COc1ccccc1[C@H](Cn1c(=O)n([C@H]2C[C@@H](C(=O)O)C2)c(=O)c2c(C)c(-c3ncco3)sc21)OC1CCOCC1
- half-life [2]: 12 min
- Vd [3]: 2.6 L/kg
- clearance [4]: 180 mL/min/kg
- MRT last [5]: 24 min
- Cmax [6]: 21.3 ng/mL
- MRT last [7]: 6 min
- bioavailability [8]: 5.7%
- pIC50 (Acetyl-CoA carboxylase 1): 9.10
- pIC50 (Acetyl-CoA carboxylase 2): 8.29
- AUC(0-t) [9]: 80.8 ng·h/mL
- AUC(0-t) [10]: 13.8 ng·h/mL
- half-life [11]: 24 min
- Tmax [12]: 36 min

Structure (SMILES): COc1ccccc1[C@H](Cn1c(=O)n(C2CN(C(=O)c3ccccc3)C2)c(=O)c2c(C)c(-c3ncco3)sc21)OC1CCOCC1
- pIC50 (Acetyl-CoA carboxylase 1): 8.27

Now from value to compound, other results behind:

- pIC50 (Acetyl-CoA carboxylase 1): 8.86
- pIC50 (Acetyl-CoA carboxylase 2): 7.78
Structure (SMILES): COc1ccccc1[C@H](Cn1c(=O)n([C@H]2C[C@](C)(C(=O)O)C2)c(=O)c2c(C)c(-c3ncco3)sc21)OC1CCOCC1

- pIC50 (Acetyl-CoA carboxylase 1): 9.07
Structure (SMILES): COc1ccccc1[C@H](Cn1c(=O)n(CC2(C(=O)O)CC2)c(=O)c2c(C)c(-c3ncco3)sc21)OC1CCOCC1

- pIC50 (Acetyl-CoA carboxylase 1): 8.02
Structure (SMILES): COc1ccccc1[C@H](Cn1c(=O)n(C2CN(C(=O)N3CC(C)(O)C3)C2)c(=O)c2c(C)c(-c3ncco3)sc21)OC1CCOCC1

- pIC50 (Acetyl-CoA carboxylase 1): 8.96
- pIC50 (Acetyl-CoA carboxylase 2): 8.04
Structure (SMILES): COc1ccccc1[C@H](Cn1c(=O)n(C2CN(C(=O)N3CCOCC3)C2)c(=O)c2c(C)c(-c3ncco3)sc21)OC1CCOCC1

- pIC50 (Acetyl-CoA carboxylase 1): 8.82
- pIC50 (Acetyl-CoA carboxylase 2): 8.21
Structure (SMILES): COc1ccccc1[C@H](Cn1c(=O)n(C2CN(C(=O)c3ncc[nH]3)C2)c(=O)c2c(C)c(-c3ncco3)sc21)OC1CCOCC1

- pIC50 (Acetyl-CoA carboxylase 1): 8.68
- pIC50 (Acetyl-CoA carboxylase 2): 8.19
Structure (SMILES): COc1ccccc1[C@H](Cn1c(=O)n(C2CN(C(=O)c3ccccn3)C2)c(=O)c2c(C)c(-c3ncco3)sc21)OC1CCOCC1

- pIC50 (Acetyl-CoA carboxylase 1): 8.98
Structure (SMILES): COc1ccccc1[C@H](Cn1c(=O)n([C@H]2C[C@](C)(C(N)=O)C2)c(=O)c2c(C)c(-c3ncco3)sc21)OC1CCOCC1

- CLint scaled [13]: 7.2 mL/min/kg
- half-life [2]: 426 min
- pIC50 (Cytochrome P450 2D6): < 4.52
- CLint scaled [15]: < 38 mL/min/kg
- pIC50 (Cytochrome P450 2B6): < 4.52
- pIC50 (Cytochrome P450 2C8): < 4.52
- Drug uptake [16]: Active
- pIC50 (Cytochrome P450 3A4 [17]): < 4.52
- Drug uptake [18]: Active
- CLint scaled [19]: 6 mL/min/kg
- Vd [3]: 21.4 L/kg
- clearance [4]: 33.3 mL/min/kg
- MRT last [5]: 246 min
- Cmax [6]: 213 ng/mL
- pIC50 (Cytochrome P450 2C9): < 4.52
- MRT last [7]: 102 min
- bioavailability [8]: 51.1%
- fraction unbound [20]: 0.015
- pIC50 (Acetyl-CoA carboxylase 1): 9.31
- fraction unbound [22]: 0.014
- pIC50 (Acetyl-CoA carboxylase 2): 8.29
- pIC50 (Cytochrome P450 2C19): < 4.52
- CLint scaled [23]: < 13 mL/min/kg
- CLint scaled [24]: 4.3 mL/min/kg
- AUC(0-t) [9]: 409 ng·h/mL
- AUC(0-t) [10]: 628 ng·h/mL
- pIC50 (Cytochrome P450 1A2): < 4.52
- Tmax [12]: 6 min
- pIC50 (Cytochrome P450 3A4 [25]): < 4.52
Structure (SMILES): COc1ccccc1[C@H](Cn1c(=O)n(C(C)(C)C(=O)O)c(=O)c2c(C)c(-c3ncco3)sc21)OC1CCOCC1 [FIRSOCOSTAT]
- pIC50 [14]: 8.32
- pIC50 [21]: < 4.52
